Legend:
[1] = test system: OVCAR-3; test: NCI-60 in vitro anticancer screening (SRB); settings: OVCAR-3, Ovarian cancer; 10 µM, 48 h
Description: (§1) The cancer screening panel’s human tumor 60 cell lines were cultured in the RPMI 1640 medium with (5%) fetal bovine serum and (2 mM) L-glutamine. For a screening experiment, cells were injected onto 96-well microtiter plates (100 µL), with plating densities varying from 5 to 40 × 10^3 cells per well, depending on different cell lines’ doubling times. Before introducing experimental drugs, the microtiter plates were incubated overnight at 37 °C, 95% air, 5% CO2, and 100% relative humidity after cell injection. TCA was employed to keep each cell line in place overnight, resembling a computation of the cell population for every cell line at the time of the addition of the drug. The experimental drugs were chilled after solubilization in DMSO at 400 times the final maximum test concentration. At the moment of the addition of the drug, the aliquot of the frozen concentrate was thawed and diluted to twice the required final maximum concentration with the complete medium containing (50 µg/mL) gentamicin. […] The bound dye was then solubilized with a (10 mM) trizma base, and absorbance was calculated at 515 nm on an automatic reader. […] The % growth of treated cells was established using seven absorbance measurements and compared to untreated control cells [57].

[2] = test system: HS 578T; test: NCI-60 in vitro anticancer screening (SRB); settings: Breast cancer, 10 µM, 48 h
Description: (§2) The cancer screening panel’s human tumor 60 cell lines were cultured in the RPMI 1640 medium with (5%) fetal bovine serum and (2 mM) L-glutamine. For a screening experiment, cells were injected onto 96-well microtiter plates (100 µL), with plating densities varying from 5 to 40 × 10^3 cells per well, depending on different cell lines’ doubling times. Before introducing experimental drugs, the microtiter plates were incubated overnight at 37 °C, 95% air, 5% CO2, and 100% relative humidity after cell injection. TCA was employed to keep each cell line in place overnight, resembling a computation of the cell population for every cell line at the time of the addition of the drug. The experimental drugs were chilled after solubilization in DMSO at 400 times the final maximum test concentration. At the moment of the addition of the drug, the aliquot of the frozen concentrate was thawed and diluted to twice the required final maximum concentration with the complete medium containing (50 µg/mL) gentamicin. The required final concentration of the drug (10 µM) was reached by adding 100 µL aliquots of these definite dilutions of the drug to suitable microtiter wells previously holding a medium of 100 µL. […] The bound dye was then solubilized with a (10 mM) trizma base, and absorbance was calculated at 515 nm on an automatic reader. […]

[3] = test system: CCRF-CEM; test: NCI-60 in vitro anticancer screening (SRB); settings: Leukemia, 10 µM, 48 h
Description: as §2

[4] = test system: COLO 205; test: NCI-60 in vitro anticancer screening (SRB); settings: COLO 205, Colon cancer; 10 µM, 48 h
Description: as §1

[5] = target: T1, telomerase inside living cancer cells HCC44 (Homo sapiens, UniProt O14746); test: Living-cell TRAP assay, HCC44; format: cell-based; settings: percent of control cells, 10 µM, 48 h
T1 construct: host or cells: HCC44
Description: (§3) The Telomeric Repeat Amplification Protocol (TRAP) [61] was used to evaluate the activity of telomerase, with some changes that we have previously described [62, 63]. A549 cells (human epithelial cell lung carcinoma, ATCC, Manassas, VA) were lysed in (10 mM) Tris-HCl, pH 7.5, (1 mM) EGTA, (1 mM) MgCl2, (5 mM) 2-mercaptoethanol, (0.1 mM) PMSF, (0.5%) CHAPS, and (10%) glycerol (Sigma-Aldrich, St. Louis, MO, USA) and centrifugation. The supernatants were kept at -80 °C. The BCA-1 Protein Assay Kit was used to assess the protein concentration in cell extracts (Sigma-Aldrich, St. Louis, MO, USA). […] To inactivate telomerase, the cells were elongated for 30 min at 37 °C and 10 min at 96 °C. Copy CX-primer was added to the elongation mixture along with 0.1 μL ([NT]) and 2.5 units Taq-polymerase, followed by the following PCR: 94 °C for 5 min; 30 cycles of 94 °C for 30 s, 50 °C for 30 s, and 72 °C for 40 s, and 72 °C for 5 min. TBE buffer and (12%) nondenaturing PAAG electrophoresis were used to visualize the PCR product. 10 μL of each sample was placed in each well of gel comb. The gels were stained with the SYBR Green I (Invitrogen, Grand Island, NY, USA), then photographed under the UV light in ChemiDocTM XRS imaging system and analyzed with GelAnalyzer 2010.

[6] = test system: MDA-MB-468; test: NCI-60 in vitro anticancer screening (SRB); settings: MDA-MB-468, Breast cancer; 10 µM, 48 h
Description: as §1

[7] = test system: HOP-92; test: NCI-60 in vitro anticancer screening (SRB); settings: HOP-92, Lung cancer (NSCLC); 10 µM, 48 h
Description: as §1

[8] = test system: MALME-3M; test: NCI-60 in vitro anticancer screening (SRB); settings: Melanoma, 10 µM, 48 h
Description: as §1

[9] = target: T2, telomerase inside living cancer cells A549 (Homo sapiens, UniProt O14746); test: Living-cell TRAP assay, A549; format: cell-based; settings: percent of control cells, 10 µM, 48 h
T2 construct: host or cells: A549
Description: as §3

[10] = test system: NCI/ADR-RES; test: NCI-60 in vitro anticancer screening (SRB); settings: Ovarian cancer, 10 µM, 48 h
Description: as §1

[11] = test system: SN12C; test: NCI-60 in vitro anticancer screening (SRB); settings: Renal cancer, 10 µM, 48 h
Description: as §1

[12] = test system: HOP-62; test: NCI-60 in vitro anticancer screening (SRB); settings: HOP-62, Lung cancer (NSCLC); 10 µM, 48 h
Description: as §1

[13] = test system: SNB-75; test: NCI-60 in vitro anticancer screening (SRB); settings: SNB-75, CNS cancer; 10 µM, 48 h
Description: as §1

[14] = test system: HCC-2998; test: NCI-60 in vitro anticancer screening (SRB); settings: HCC-2998, Colon cancer; 10 µM, 48 h
Description: as §1

[15] = test system: UACC-62; test: NCI-60 in vitro anticancer screening (SRB); settings: UACC-62, Melanoma; 10 µM, 48 h
Description: as §1

[16] = test system: NCI-H322M; test: NCI-60 in vitro anticancer screening (SRB); settings: Lung cancer (NSCLC), 10 µM, 48 h
Description: as §1

[17] = test system: SK-MEL-5; test: NCI-60 in vitro anticancer screening (SRB); settings: SK-MEL-5, Melanoma; 10 µM, 48 h
Description: as §2

[18] = test system: A498; test: NCI-60 in vitro anticancer screening (SRB); settings: A498, Renal cancer; 10 µM, 48 h
Description: as §2

[19] = test system: MOLT-4; test: NCI-60 in vitro anticancer screening (SRB); settings: MOLT-4, Leukemia; 10 µM, 48 h
Description: as §1

[20] = test system: ACHN; test: NCI-60 in vitro anticancer screening (SRB); settings: Renal cancer, 10 µM, 48 h
Description: as §2

[21] = test system: SF-295; test: NCI-60 in vitro anticancer screening (SRB); settings: SF-295, CNS cancer; 10 µM, 48 h
Description: as §1

[22] = test system: SF-268; test: NCI-60 in vitro anticancer screening (SRB); settings: SF-268, CNS cancer; 10 µM, 48 h
Description: as §1

[23] = test system: U251; test: NCI-60 in vitro anticancer screening (SRB); settings: U251, CNS cancer; 10 µM, 48 h
Description: as §1

[24] = test system: NCI-H226; test: NCI-60 in vitro anticancer screening (SRB); settings: NCI-H226, Lung cancer (NSCLC); 10 µM, 48 h
Description: as §1

[25] = test system: HL-60(TB); test: NCI-60 in vitro anticancer screening (SRB); format: cell-based, human; settings: Leukemia, 10 µM, 48 h
[26] = test system: UO-31; test: NCI-60 in vitro anticancer screening (SRB); settings: UO-31, Renal cancer; 10 µM, 48 h
Description: as §1

[27] = test system: LOX IMVI; test: NCI-60 in vitro anticancer screening (SRB); settings: Melanoma, 10 µM, 48 h
Description: as §1

[28] = test system: NCI-H522; test: NCI-60 in vitro anticancer screening (SRB); settings: NCI-H522, Lung cancer (NSCLC); 10 µM, 48 h
Description: as §1

[29] = test system: MCF7; test: NCI-60 in vitro anticancer screening (SRB); settings: MCF7, Breast cancer; 10 µM, 48 h
Description: as §2

T1 sequence (O14746 whole entry): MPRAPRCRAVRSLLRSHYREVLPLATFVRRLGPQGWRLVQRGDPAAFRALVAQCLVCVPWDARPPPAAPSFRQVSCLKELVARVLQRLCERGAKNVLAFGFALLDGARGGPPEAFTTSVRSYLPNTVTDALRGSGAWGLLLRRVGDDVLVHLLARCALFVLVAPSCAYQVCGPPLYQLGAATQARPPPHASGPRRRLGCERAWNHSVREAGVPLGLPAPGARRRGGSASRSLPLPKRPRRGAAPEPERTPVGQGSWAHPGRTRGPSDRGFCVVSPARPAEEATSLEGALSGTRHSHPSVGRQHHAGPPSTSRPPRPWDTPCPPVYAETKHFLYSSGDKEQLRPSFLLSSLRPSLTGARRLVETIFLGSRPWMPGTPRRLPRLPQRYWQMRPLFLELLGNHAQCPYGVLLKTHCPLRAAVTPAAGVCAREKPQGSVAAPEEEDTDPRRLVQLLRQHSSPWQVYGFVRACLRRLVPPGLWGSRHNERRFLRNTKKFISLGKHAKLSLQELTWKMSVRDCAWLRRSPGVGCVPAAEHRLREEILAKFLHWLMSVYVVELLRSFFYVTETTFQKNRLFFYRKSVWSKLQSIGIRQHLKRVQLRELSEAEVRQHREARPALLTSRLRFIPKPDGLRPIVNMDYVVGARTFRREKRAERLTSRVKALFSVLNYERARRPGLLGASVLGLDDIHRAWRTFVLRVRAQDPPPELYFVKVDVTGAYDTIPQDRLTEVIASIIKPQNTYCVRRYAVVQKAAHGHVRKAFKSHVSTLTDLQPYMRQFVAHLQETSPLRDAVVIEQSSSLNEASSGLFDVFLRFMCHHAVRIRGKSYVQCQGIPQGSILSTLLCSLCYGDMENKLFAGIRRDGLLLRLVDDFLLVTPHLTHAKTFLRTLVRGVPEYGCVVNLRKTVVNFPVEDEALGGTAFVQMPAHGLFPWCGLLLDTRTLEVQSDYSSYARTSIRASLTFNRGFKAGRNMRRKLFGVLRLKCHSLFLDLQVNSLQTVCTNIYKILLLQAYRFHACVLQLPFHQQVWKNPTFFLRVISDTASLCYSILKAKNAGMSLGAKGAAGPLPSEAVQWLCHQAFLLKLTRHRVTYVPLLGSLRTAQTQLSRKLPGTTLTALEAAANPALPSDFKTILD
T1 sequence (O60832 whole entry partner): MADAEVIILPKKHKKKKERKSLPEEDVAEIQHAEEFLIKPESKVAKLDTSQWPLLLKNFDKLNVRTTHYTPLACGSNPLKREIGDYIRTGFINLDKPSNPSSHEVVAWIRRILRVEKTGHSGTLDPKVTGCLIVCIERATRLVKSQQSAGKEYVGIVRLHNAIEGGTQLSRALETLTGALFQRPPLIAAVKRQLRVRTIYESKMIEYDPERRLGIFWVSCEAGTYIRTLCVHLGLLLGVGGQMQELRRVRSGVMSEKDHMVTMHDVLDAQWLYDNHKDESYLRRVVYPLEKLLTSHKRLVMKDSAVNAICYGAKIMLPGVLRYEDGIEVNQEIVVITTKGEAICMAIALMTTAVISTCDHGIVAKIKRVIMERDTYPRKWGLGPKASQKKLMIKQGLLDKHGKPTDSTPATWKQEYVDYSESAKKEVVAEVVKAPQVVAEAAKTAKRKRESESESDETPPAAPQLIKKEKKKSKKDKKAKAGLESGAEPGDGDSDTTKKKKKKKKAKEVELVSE
T1 sequence (Q9NX24 whole entry partner): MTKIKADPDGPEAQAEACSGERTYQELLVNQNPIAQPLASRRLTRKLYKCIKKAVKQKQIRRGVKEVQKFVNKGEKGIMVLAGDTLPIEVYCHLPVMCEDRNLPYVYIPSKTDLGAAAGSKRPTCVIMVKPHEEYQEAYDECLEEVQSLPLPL
T1 sequence (Q9NPE3 whole entry partner): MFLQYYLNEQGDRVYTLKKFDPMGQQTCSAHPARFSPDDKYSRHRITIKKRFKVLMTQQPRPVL
T1 sequence (Q9NY12 whole entry partner): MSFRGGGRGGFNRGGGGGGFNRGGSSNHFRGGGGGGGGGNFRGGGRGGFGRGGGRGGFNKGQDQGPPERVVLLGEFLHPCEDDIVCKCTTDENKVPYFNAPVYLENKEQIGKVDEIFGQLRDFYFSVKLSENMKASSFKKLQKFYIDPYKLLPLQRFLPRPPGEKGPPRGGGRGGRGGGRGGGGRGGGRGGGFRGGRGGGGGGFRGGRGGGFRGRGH
T1 sequence (Q9BUR4 whole entry partner): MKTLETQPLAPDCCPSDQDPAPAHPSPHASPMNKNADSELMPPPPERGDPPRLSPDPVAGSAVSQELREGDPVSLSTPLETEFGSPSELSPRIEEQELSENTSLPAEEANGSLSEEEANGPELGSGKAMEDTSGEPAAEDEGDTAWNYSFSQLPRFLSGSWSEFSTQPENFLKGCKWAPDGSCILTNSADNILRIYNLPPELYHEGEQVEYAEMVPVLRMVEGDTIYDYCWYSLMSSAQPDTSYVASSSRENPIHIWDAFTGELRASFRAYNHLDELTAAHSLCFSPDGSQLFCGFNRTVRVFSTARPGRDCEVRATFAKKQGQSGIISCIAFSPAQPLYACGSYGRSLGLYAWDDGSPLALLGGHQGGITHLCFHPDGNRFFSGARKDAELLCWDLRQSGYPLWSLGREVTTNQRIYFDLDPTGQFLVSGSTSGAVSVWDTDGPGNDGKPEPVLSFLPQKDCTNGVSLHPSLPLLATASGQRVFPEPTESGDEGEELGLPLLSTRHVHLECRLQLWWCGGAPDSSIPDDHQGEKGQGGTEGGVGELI
T2 sequence (O14746 whole entry): as the sequence (O14746 whole entry) above
T2 sequence (O60832 whole entry partner): as the sequence (O60832 whole entry partner) above
T2 sequence (Q9NX24 whole entry partner): as the sequence (Q9NX24 whole entry partner) above
T2 sequence (Q9NPE3 whole entry partner): as the sequence (Q9NPE3 whole entry partner) above
T2 sequence (Q9NY12 whole entry partner): as the sequence (Q9NY12 whole entry partner) above
T2 sequence (Q9BUR4 whole entry partner): as the sequence (Q9BUR4 whole entry partner) above

In the case of `N#C/C(=C\c1ccc2ccccc2c1)C(=O)Nc1sc2c(c1C#N)CCCC2` [Compound 36b, (2E)-2-Cyano-N-(3-cyano-4,5,6,7-tetrahydro-1-benzothiophen-2-yl)-3-(naphthalen-2-yl)prop-2-enamide], the “Growth Percent” value [1] is reported as 98.78%, the “Growth Percent” value [2] is reported as 103.54% and the “Growth Percent” value [3] is reported as 104.69%. For the same compound, the “Growth Percent” value [4] was 103.10%, the “% Telomerase Activity in Cancer Cells” value [5] was 54.4 ± 4.4% and the “Growth Percent” value [6] was 90.36%. For the same compound, the “Growth Percent” value [7] was 90.75%, the “Growth Percent” value [8] was 109.97% and the “% Telomerase Activity in Cancer Cells” value [9] was 18.1 ± 5.4%. The “Growth Percent” value [10] was 99.44%, the “Growth Percent” value [11] was 100.72% and the “Growth Percent” value [12] was 98.36%. For the same compound, the “Growth Percent” value [13] was 101.09%, the “Growth Percent” value [14] was 114.98% and the “Growth Percent” value [15] was 91.73%. The “Growth Percent” value [16] was 98.58%, the “Growth Percent” value [17] was 97.65% and the “Growth Percent” value [18] was 99.38%. For the same compound, the “Growth Percent” value [19] was 100.37%, the “Growth Percent” value [20] was 103.29% and the “Growth Percent” value [21] was 95.53%. The “Growth Percent” value [22] was 104.45%, the “Growth Percent” value [23] was 98.73% and the “Growth Percent” value [24] was 89.78%. For the same compound, the “Growth Percent” value [25] was 99.47%, the “Growth Percent” value [26] was 81.95% and the “Growth Percent” value [27] was 102.88%. For the same compound, the “Growth Percent” value [28] was 94.31% and the “Growth Percent” value [29] was 92.41%.

— PMC9025901, “New Genetic Bomb Trigger: Design, Synthesis, Molecular Dynamics Simulation, and Biological Evaluation of Novel BIBR1532-Related Analogs Targeting Telomerase against Non-Small Cell Lung Cancer” (Pharmaceuticals, 2022)
